Source: US20250327793A1, “METHODS OF IDENTIFYING COMPOUNDS THAT MODULATE LAUNDRY MALODOR, MOLDY MALODOR, OR SWEAT MALODOR” (Firmenich SA, priority 2017, published 2025)
Each block holds one compound with its values, some of them ahead of it.

Tests used:
Olfr93 = assay: Cell-based OR activation assay (cAMP accumulation); set-up: species or system mouse; settings: FIG. 6; OR-dependent accumulation of cAMP
Olfr398 = assay: Cell-based OR activation assay (cAMP accumulation); set-up: species or system mouse; settings: FIG. 6; OR-dependent accumulation of cAMP
Olfr120 = assay: Cell-based OR activation assay (cAMP accumulation); set-up: species or system mouse; settings: FIG. 6; OR-dependent accumulation of cAMP
Olfr1364 = assay: Cell-based OR activation assay (cAMP accumulation); set-up: species or system mouse; settings: FIG. 6; OR-dependent accumulation of cAMP
Olfr1126 [1] = molecular target: Olfr1126 (Mus musculus, UniProt Q7TR49); assay: 3-hydroxy-3-methyl-hexanoic acid concentration-dependent activation of Olfr1126: OR-dependent cAMP accumulation in a cell-based assay (functional dose-response); settings: agonist, mouse Olfr1126 (SEQ ID NO: 46), N-terminal FLAG/Rho/Lucy tags, HEK 293T cells, Gαolf, FIG. 9
Olfr1126 (Mus musculus, UniProt Q7TR49), sequence (Q7TR49 1-314): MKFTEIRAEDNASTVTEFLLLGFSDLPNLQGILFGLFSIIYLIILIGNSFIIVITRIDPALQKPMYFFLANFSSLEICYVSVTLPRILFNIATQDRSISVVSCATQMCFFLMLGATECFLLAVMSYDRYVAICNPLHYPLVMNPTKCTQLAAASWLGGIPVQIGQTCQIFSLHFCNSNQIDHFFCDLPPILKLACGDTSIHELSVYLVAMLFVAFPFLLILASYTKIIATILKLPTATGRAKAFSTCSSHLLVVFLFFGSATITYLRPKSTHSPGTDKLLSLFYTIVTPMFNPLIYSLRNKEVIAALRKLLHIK
Excerpt: (§1) The detection method pertains to OR-dependent accumulation of cAMP in said cells, as a result of OR activation by 3-hydroxy-3-methyl-hexanoic acid.
(§2) In a further embodiment, to complete the deorphanization process, the candidate OR genes are further expressed in vitro for confirmation of activity against the compounds used to isolate the olfactory sensory neurons and other structurally-related compounds of interest. […]
(§3) Neurons that were activated by DMTS were further isolated for full transcriptome analysis to identify the responsive odorant receptor. […] Amplified cDNA was then used to generate an Illumina cDNA library for Next-Generation-Sequencing and the generation of 100 base pair single read sequences. […]

Olfr1126 [2] = assay: Cell-based OR activation assay (cAMP accumulation); set-up: species or system mouse; settings: FIG. 9; OR-dependent accumulation of cAMP
Excerpt: as §1
(§4) In a further embodiment, to complete the deorphanization process, the candidate OR genes are further expressed in vitro for confirmation of activity against the compounds used to isolate the olfactory sensory neurons and other structurally-related compounds of interest. The mouse receptors identified from isolated olfactory neurons that respond to geonol, DMTS, 1-octen-3-ol, butyric acid, 3-methyl-2-hexenoic acid, 3-hydroxy-3-methyl-hexanoic acid or transpirol are modified at their N-terminus with short polypeptide sequences (e.g., FLAG® (SEQ ID NO: 48), Rho (SEQ ID NO: 50; 20 first amino acids of the bovine rhodopsin receptor), and/or Lucy (SEQ ID NO: 52; cleavable leucine-rich signal peptide sequence) tags), transiently expressed in HEK 293T cells, and stimulated separately with geonol, DMTS, 1-octen-3-ol, butyric acid, 3-methyl-2-hexenoic acid, 3-hydroxy-3-methyl-hexanoic acid or transpirol to confirm their identity as bona fide geonol, dimethyl trisulfide (DMTS), 1-octen-3-ol, butyric acid, 3-methyl-2-hexenoic acid, 3-hydroxy-3-methyl-hexanoic acid or transpirol receptors. In a further embodiment, an RTP1 gene can also be expressed in the cell lines whether through activation of the endogenous RTP1 gene or through transformation. […]

OR51I2 = molecular target: T1, OR51I2 (Homo sapiens, UniProt Q9H344); assay: 3-methyl-2-hexenoic acid concentration-dependent activation of OR51I2: OR-dependent cAMP accumulation in a cell-based assay (functional dose-response); settings: agonist, human OR51I2 (SEQ ID NO: 20), HEK293T cells expressing Golf, FIG. 8
T1 construct: expressed in transfected cells; host or cells: HEK293T
T1 sequence (Q9H344 whole entry): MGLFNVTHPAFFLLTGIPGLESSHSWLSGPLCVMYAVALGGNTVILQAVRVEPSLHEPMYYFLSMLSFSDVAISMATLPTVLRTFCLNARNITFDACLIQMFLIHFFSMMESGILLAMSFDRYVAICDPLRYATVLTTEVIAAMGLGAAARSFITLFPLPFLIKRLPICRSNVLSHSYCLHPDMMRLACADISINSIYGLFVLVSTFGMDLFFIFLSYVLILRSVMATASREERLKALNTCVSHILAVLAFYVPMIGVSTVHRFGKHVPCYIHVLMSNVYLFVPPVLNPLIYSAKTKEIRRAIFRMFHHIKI
Excerpt: (§5) The detection method pertains to OR-dependent accumulation of cAMP in said cells, as a result of OR activation by 3-methyl-2-hexenoic acid.
as §2
(§6) In the second method, a panel of odorant receptors comprising the 400 putatively functional human receptor repertoire were transfected into a cultured human HEK293T cell line described in WO2014/210585 expressing Human olfactory G-protein alpha subunit (Golf—SEQ. ID No. 49) and coupled to a cyclicAMP reporter. Said panel of in vitro odorant receptors were exposed to MCSs and the level of cAMP signal was measured for each receptor. […]

Olfr641 [3] = molecular target: Olfr641 (Mus musculus, UniProt Q8VGX6); assay: 3-methyl-2-hexenoic acid concentration-dependent activation of Olfr641: OR-dependent cAMP accumulation in a cell-based assay (functional dose-response); settings: agonist, mouse Olfr641 (SEQ ID NO: 34), N-terminal FLAG/Rho/Lucy tags, HEK 293T cells, Gαolf, FIG. 8
Olfr641 (Mus musculus, UniProt Q8VGX6), sequence (Q8VGX6 1-312): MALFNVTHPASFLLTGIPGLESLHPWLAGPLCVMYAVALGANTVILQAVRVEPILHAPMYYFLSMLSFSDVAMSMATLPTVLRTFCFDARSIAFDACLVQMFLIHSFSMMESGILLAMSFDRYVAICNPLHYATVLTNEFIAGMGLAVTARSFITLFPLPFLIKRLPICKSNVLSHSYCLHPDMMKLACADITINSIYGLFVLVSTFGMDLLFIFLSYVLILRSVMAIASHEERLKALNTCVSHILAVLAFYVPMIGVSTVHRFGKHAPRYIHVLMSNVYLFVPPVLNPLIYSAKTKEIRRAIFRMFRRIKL
Excerpt: as §5, §2, §3

Olfr263 [4] = molecular target: Olfr263 (Mus musculus, UniProt Q7TQT8); assay: Concentration-dependent activation of Olfr263: OR-dependent cAMP accumulation in a cell-based assay (functional dose-response); settings: agonist 3-methyl-2-hexenoic acid, mouse Olfr263 (SEQ ID NO: 22), N-terminal FLAG/Rho/Lucy tags, HEK 293T cells, Gαolf, FIG. 8
Olfr263 (Mus musculus, UniProt Q7TQT8), sequence (Q7TQT8 1-317): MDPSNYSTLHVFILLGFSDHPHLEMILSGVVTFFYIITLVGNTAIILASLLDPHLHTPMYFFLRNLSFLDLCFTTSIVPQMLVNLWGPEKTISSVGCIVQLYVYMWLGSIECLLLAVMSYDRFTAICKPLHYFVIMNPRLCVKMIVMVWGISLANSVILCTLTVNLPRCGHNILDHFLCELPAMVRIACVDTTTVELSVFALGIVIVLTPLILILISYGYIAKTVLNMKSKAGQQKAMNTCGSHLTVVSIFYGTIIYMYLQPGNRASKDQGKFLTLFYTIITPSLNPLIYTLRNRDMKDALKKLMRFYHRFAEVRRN
Excerpt: (§7) The detection method pertains to OR-dependent accumulation of cAMP in said cells, as a result of OR activation by transpirol.
as §5, §2, §3

Olfr263 [5] = assay: Cell-based OR activation assay (cAMP accumulation); set-up: species or system mouse; settings: FIG. 7 and 8; OR-dependent accumulation of cAMP
Excerpt: as §7, §5
as §4, with “receptors.” for “receptors. In a further embodiment, an RTP1 gene can also be expressed in the cell lines whether through activation of the endogenous RTP1 gene or through transformation.”

OR5112 = molecular target: T2, OR5112 (Homo sapiens, UniProt Q9H344); assay: Cell-based OR activation assay (cAMP accumulation); settings: FIG. 8; OR-dependent accumulation of cAMP
T2 construct: expressed in transfected cells; host or cells: HEK293T expressing human Golf
T2 sequence (Q9H344 whole entry): as the sequence (Q9H344 whole entry) above
Excerpt: as §5, §2, §6

Olfr641 [6] = assay: Cell-based OR activation assay (cAMP accumulation); set-up: species or system mouse; settings: FIG. 8; OR-dependent accumulation of cAMP
Excerpt: as §5, §4

OR2W1 [7] = molecular target: T3, OR2W1 (Homo sapiens, UniProt Q9Y3N9, M81V); assay: Concentration-dependent activation of OR2W1: OR-dependent cAMP accumulation in a cell-based assay (functional dose-response); set-up: expressed in transfected cells; host or cells: HEK293T; settings: agonist 3-methyl-2-hexenoic acid, human OR2W1 (SEQ ID NO: 2), HEK293T cells expressing Golf, FIG. 8
T3 sequence (Q9Y3N9 1-320 M81V): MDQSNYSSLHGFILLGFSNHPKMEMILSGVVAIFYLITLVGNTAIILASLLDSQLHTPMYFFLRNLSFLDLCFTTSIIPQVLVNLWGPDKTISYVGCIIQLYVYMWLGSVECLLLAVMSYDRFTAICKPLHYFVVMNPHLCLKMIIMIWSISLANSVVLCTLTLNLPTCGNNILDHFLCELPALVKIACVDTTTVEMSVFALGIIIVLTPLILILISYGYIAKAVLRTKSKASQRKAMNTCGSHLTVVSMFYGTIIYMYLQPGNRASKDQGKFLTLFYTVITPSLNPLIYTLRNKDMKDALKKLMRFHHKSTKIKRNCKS
Excerpt: as §7, §5, §2, §6

OR2W1 [8] = molecular target: T3, OR2W1; assay: Cell-based OR activation assay (cAMP accumulation); set-up: expressed in transfected cells; host or cells: HEK293T expressing human Golf; settings: FIG. 7 and 8; OR-dependent accumulation of cAMP
Excerpt: as §7, §5, §2, §6

Olfr96 [9] = molecular target: Olfr96 (Mus musculus, UniProt Q0VBG2); assay: Geonol concentration-dependent activation of Olfr96: OR-dependent cAMP accumulation in a cell-based assay (functional dose-response); settings: agonist, mouse Olfr96 (SEQ ID NO: 28), N-terminal FLAG/Rho/Lucy tags, HEK 293T cells, Gαolf, FIG. 5
Olfr96 (Mus musculus, UniProt Q0VBG2), sequence (Q0VBG2 1-313): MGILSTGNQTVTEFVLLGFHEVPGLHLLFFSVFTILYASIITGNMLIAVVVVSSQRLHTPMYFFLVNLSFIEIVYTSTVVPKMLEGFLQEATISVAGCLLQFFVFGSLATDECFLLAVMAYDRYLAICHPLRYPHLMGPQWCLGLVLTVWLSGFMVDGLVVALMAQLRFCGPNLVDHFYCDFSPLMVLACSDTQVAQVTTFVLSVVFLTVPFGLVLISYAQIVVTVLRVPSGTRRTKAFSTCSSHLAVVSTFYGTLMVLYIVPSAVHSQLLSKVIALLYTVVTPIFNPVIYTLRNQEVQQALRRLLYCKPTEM
Excerpt: (§8) The detection method pertains to OR-dependent accumulation of cAMP in said cells, as a result of OR activation by geonol.
as §2, §3

Olfr339 [10] = molecular target: Olfr339 (Mus musculus, UniProt Q8VGK8); assay: Geonol concentration-dependent activation of Olfr339: OR-dependent cAMP accumulation in a cell-based assay (functional dose-response); settings: agonist, mouse Olfr339 (SEQ ID NO: 44), N-terminal FLAG/Rho/Lucy tags, HEK 293T cells, Gαolf, FIG. 5
Olfr339 (Mus musculus, UniProt Q8VGK8), sequence (Q8VGK8 1-309): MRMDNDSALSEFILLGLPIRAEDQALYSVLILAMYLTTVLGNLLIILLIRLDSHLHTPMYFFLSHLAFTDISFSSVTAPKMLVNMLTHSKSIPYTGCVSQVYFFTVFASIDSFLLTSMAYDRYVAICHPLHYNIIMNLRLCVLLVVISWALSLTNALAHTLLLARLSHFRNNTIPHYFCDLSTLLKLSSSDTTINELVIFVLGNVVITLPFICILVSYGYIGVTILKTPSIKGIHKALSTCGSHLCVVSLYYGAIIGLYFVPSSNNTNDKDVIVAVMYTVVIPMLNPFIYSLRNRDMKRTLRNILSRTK
Excerpt: as §8, §2, §3

Olfr1487 [11] = molecular target: Olfr1487 (Mus musculus, UniProt Q8VFQ6); assay: Geonol concentration-dependent activation of Olfr1487: OR-dependent cAMP accumulation in a cell-based assay (functional dose-response); settings: agonist, mouse Olfr1487 (SEQ ID NO: 42), N-terminal FLAG/Rho/Lucy tags, HEK 293T cells, Gαolf, FIG. 5
Olfr1487 (Mus musculus, UniProt Q8VFQ6), sequence (Q8VFQ6 1-315): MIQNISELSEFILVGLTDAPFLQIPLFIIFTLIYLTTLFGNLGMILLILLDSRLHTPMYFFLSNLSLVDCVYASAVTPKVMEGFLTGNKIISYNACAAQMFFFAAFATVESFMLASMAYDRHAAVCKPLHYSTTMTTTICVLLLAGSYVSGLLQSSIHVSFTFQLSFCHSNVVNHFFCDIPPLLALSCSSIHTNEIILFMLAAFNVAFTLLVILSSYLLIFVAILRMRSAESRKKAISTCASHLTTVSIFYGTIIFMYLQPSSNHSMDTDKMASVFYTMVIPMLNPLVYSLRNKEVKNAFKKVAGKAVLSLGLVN
Excerpt: as §8, §2, §3

Olfr1322 [12] = molecular target: Olfr1322 (Mus musculus, UniProt Q7TQW3); assay: Geonol concentration-dependent activation of Olfr1322: OR-dependent cAMP accumulation in a cell-based assay (functional dose-response); settings: agonist, mouse Olfr1322 (SEQ ID NO: 73), N-terminal FLAG/Rho/Lucy tags, HEK 293T cells, Gαolf, FIG. 5
Olfr1322 (Mus musculus, UniProt Q7TQW3), sequence (Q7TQW3 1-310): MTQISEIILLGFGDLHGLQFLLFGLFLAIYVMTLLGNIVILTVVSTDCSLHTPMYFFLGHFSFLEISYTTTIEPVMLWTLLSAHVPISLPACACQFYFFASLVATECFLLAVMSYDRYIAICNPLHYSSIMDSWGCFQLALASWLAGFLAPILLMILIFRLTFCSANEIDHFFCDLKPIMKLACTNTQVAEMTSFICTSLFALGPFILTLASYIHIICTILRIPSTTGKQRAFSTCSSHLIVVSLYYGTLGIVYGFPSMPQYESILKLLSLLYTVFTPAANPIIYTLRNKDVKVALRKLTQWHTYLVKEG
Excerpt: as §8, §2, §3

OR11A1 [13] = molecular target: T4, OR11A1 (Homo sapiens, UniProt Q9GZK7); assay: Geonol concentration-dependent activation of OR11A1: OR-dependent cAMP accumulation in a cell-based assay (functional dose-response); set-up: expressed in transfected cells; host or cells: HEK293T; settings: agonist, human OR11A1 (SEQ ID NO: 12), HEK293T cells expressing Golf, FIG. 5
T4 sequence (Q9GZK7 whole entry): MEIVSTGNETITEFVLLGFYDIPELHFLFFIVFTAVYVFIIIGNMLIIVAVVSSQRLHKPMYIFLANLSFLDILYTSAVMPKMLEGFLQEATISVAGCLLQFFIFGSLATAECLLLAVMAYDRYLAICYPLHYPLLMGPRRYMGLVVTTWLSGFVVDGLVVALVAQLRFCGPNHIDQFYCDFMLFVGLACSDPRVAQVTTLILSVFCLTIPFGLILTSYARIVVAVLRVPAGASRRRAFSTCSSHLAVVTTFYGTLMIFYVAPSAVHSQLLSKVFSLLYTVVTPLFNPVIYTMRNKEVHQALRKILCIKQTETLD
Excerpt: as §8, §2, §6

Olfr96 [14] = assay: Cell-based OR activation assay (cAMP accumulation); set-up: species or system mouse; settings: FIG. 5; OR-dependent accumulation of cAMP
Olfr339 [15] = assay: Cell-based OR activation assay (cAMP accumulation); set-up: species or system mouse; settings: FIG. 5; OR-dependent accumulation of cAMP
Olfr1487 [16] = assay: Cell-based OR activation assay (cAMP accumulation); set-up: species or system mouse; settings: FIG. 5; OR-dependent accumulation of cAMP
Olfr1322 [17] = assay: Cell-based OR activation assay (cAMP accumulation); set-up: species or system mouse; settings: FIG. 5; OR-dependent accumulation of cAMP
OR11A1 [18] = molecular target: T4, OR11A1; assay: Cell-based OR activation assay (cAMP accumulation); set-up: expressed in transfected cells; host or cells: HEK293T expressing human Golf; settings: FIG. 5; OR-dependent accumulation of cAMP
Olfr46 = assay: Cell-based OR activation assay (cAMP accumulation); set-up: species or system mouse; settings: FIG. 7; OR-dependent accumulation of cAMP
Excerpt: as §7, §4

[19] = system: T5, OR11A1 or OR2M3 olfactory receptor; assay: Geonol olfactory receptor antagonist cell-based inhibitory dose-response assay; set-up: species or system human; settings: Table 2; geonol induced receptor activity, geonol at EC50
T5 construct: fused on or other part: Possibly N-terminal FLAG, Rho and/or Lucy tags

human sensory panel = assay: Sensory evaluation of geonol earthy/moss odor in binary mixtures with antagonists; format: in vivo; settings: percentage of geonol malodor (earthy/moss odor) remaining in binary iso-intense mixture vs REF; * = statistically different from geonol alone
Excerpt: Sensory Evaluation: Five 16 oz glass jars containing either REF (geonol only), geonol only control, antagonist only, mixture of geonol and isointense antagonist, or mixture of geonol and low intensity antagonist were presented to the panelists (last four samples were randomized across panelists). The panelists were asked to familiarize themselves with the earthy/moss odor quality from the REF jar first, then rate the pleasantness, earthy/moss odor intensity and overall odor intensity of the next four samples on a 0-10 linear scale. The inter-stimulus interval between the samples was two minutes to avoid adaptation.

[20] = system: OR2W1 or OR1A1 olfactory receptor; assay: 1-octen-3-ol olfactory receptor antagonist cell-based inhibitory dose-response assay; settings: Table 3
Excerpt: Each cell line was screened with a volatile compound library for their inhibitory properties and potential 1-octen-3-ol smell inhibition.
Single concentration monitoring of the 1-octen-3-ol induced cell activity in the presence or absence of a test compound allowed for the identification of compounds with a putative suppression or inhibitory effect.

Compound: C=CC(O)CCCCC (stereo not shown) [1-octen-3-ol]
activation of Olfr93 (Olfr93): concentration-dependent and specific activation
activation of Olfr398 (Olfr398): concentration-dependent and specific activation
activation of Olfr120 (Olfr120): concentration-dependent and specific activation
activation of Olfr1364 (Olfr1364): concentration-dependent and specific activation

Compound: CC1CCCC2(C)CCCCC12O [geonol, (4S,4aS,8aR)-4,8a-Dimethyl-1,2,3,4,5,6,7,-octahydronaphthalen-4a-ol]
activation of Olfr96 (Olfr96 [14]): concentration-dependent and specific activation
activation of Olfr339 (Olfr339 [15]): concentration-dependent and specific activation
activation of Olfr1487 (Olfr1487 [16]): concentration-dependent and specific activation
activation of Olfr1322 (Olfr1322 [17]): concentration-dependent and specific activation
activation of OR11A1 (OR11A1 [18]): concentration-dependent and specific activation

Compound: CCCC(C)(S)CCO (stereo not shown) [transpirol, 3-methyl-3-sulfanylhexanol]
activation of Olfr263 (Olfr263 [5]): concentration-dependent and specific activation
activation of Olfr46 (Olfr46): concentration-dependent and specific activation
activation of OR2W1 (OR2W1 [8]): concentration-dependent and specific activation

Continued, in another order:

EC50 (Olfr1126 [1]): 40.3 µM
Compound: CCCC(C)(O)CC(=O)O (stereo not shown) [3-hydroxy-3-methyl-hexanoic acid]
activation of Olfr1126 (Olfr1126 [2]): concentration-dependent and specific activation

EC50 (OR51I2): 13.9 µM
EC50 (Olfr641 [3]): 1.75 µM
EC50 (Olfr263 [4]): 183 µM
EC50 (OR2W1 [7]): 214 µM
Compound: CCCC(C)=CC(=O)O [3-methyl-2-hexenoic acid]
activation of Olfr263 (Olfr263 [5]): concentration-dependent and specific activation
activation of OR5112 (OR5112): concentration-dependent and specific activation
activation of Olfr641 (Olfr641 [6]): concentration-dependent and specific activation
activation of OR2W1 (OR2W1 [8]): concentration-dependent and specific activation

EC50 (Olfr96 [9]): 0.0168 µM
EC50 (Olfr339 [10]): 1.28 µM
EC50 (Olfr1487 [11]): 3.58 µM
EC50 (Olfr1322 [12]): 37.5 µM
EC50 (OR11A1 [13]): 2.8 µM
Compound: CC1CCCC2(C)CCCCC12O [Geonol, (4S,4aS,8aR)-4,8a-Dimethyl-1,2,3,4,5,6,7,-octahydronaphthalen-4a-ol]

IC50 ([20]; 1-octen-3-ol at single activating concentration (EC50), receptor (OR2W1 or OR1A1) not stated per compound): > 600 µM
Compound: isobutylquinoline
% Inhibition [19]: 45%
% Remaining in human sensory tests (human sensory panel): 52* %
% Inhibition ([20]; normalized to baseline agonist activity, 1-octen-3-ol at EC50): 30.14%
